SMILES strings stand for the structures.

One assay has as its system P388CPT45. The assay can be described thus: Cytotoxicity against topoisomerase 1-deficient subclone P388/CPT45 murine leukemic cell line. The assay is classed as functional, cell-based. The settings on record: Mus musculus.
The subject of another assay is P388. The assay can be described thus: Cytotoxicity against P388 murine leukemic cell line. The assay is classed as functional, cell-based. The note with it: Mus musculus.

Consider `O=c1c2cccc(CO)c2cc2n1Cc1cc3ccccc3nc1-2`, for which the concentration for half-maximal inhibition (IC50) amounted to 43 µM in the assay on P388CPT45 and 35.5 µM in the assay with P388.
